Patent US20200157144A1, “ANTIMICROBIAL PEPTIDOMIMETICS” (priority 2017, published 2020)
Values after ≈ are worked out from the molar mass of the structure shown. Like-named read-outs stand apart in the source and are kept apart here. Square brackets hold non-standard residues; d marks the D form. Peptide text beside a SMILES is read from it. Bip(4'-Cl) = N[C@@H](Cc1ccc(-c2ccc(Cl)cc2)cc1)C(=O)O; dBip(4'-Cl) = N[C@H](Cc1ccc(-c2ccc(Cl)cc2)cc1)C(=O)O; Bip(4'-Me) = Cc1ccc(-c2ccc(C[C@H](N)C(=O)O)cc2)cc1; Bip = N[C@@H](Cc1ccc(-c2ccccc2)cc1)C(=O)O

Legend:
Test in all cases: microbe, parasite or virus in culture
Type in all cases: cell-based, Staphylococcus aureus
[1] = tested on: Mupirocin-resistant MRSA ATCC-BAA-1556; conditions: for MIC: read-out: MIC
Description: (§1) The MICs of test compounds were determined using the microdilution method from the Clinical and Laboratory Standards Institute (CLSI) guidelines (Clinical and Laboratory Standards Institute. Methods for dilution antimicrobial susceptibility tests for bacteria that grow aerobically; approved standard—ninth edition. Document M07-A9. Vol. 32 No. 2. Wayne, Pa.: CLSI; 2012). Briefly, bacteria were grown fresh from frozen stock in Mueller Hinton 2 (MH2) agar at 37° C. After an overnight incubation, 5 bacteria colonies were selected to grow in cation-adjusted MH2 broth in a shaking incubator (140 RPM) at 37° C. Cells were grown to an optical density (OD600) of 0.15-0.16 determined using a spectrophotometer (Molecular Devices Spectra Max Plus), which corresponds to ˜1×10^8 CFU/mL. Test compounds were constituted into 4 mM DMSO stock solutions and then subjected to 2-fold serial dilution in a 96-well plate with concentrations ranging from 100 to 0.195 μM in duplicates. […] of microbial culture containing ˜1×10^6 CFU/mL of microbes in the respective broths was introduced into each well containing 50 μL of compound solution. After an overnight incubation at 35° C., (220 RPM), OD600 measurements were conducted using the microplate spectrophotometer. The MIC was defined as the lowest antibiotic or compound concentration (μM) required to inhibit bacteria growth.
(§2) The 11th well was used as the growth control well (medium with bacterial inoculums, no antibacterial) while the 12th well was the sterility control well (medium only).

[2] = tested on: Mupirocin-resistant MRSA ATCC-BAA-1708; conditions: ATCC-BAA-1708; read-out: MIC
Description: as §1, §2

[3] = tested on: Mupirocin-resistant MRSA ATCC-BAA-1750 (USA200); conditions: ATCC-BAA-1750; read-out: MIC
Description: as §1, §2

[4] = tested on: Mupirocin-susceptible MRSA ATCC-33592 (ST239); conditions: ATCC-33592; read-out: MIC
Description: as §1, §2

[5] = tested on: Mupirocin-susceptible MRSA ATCC-700699 (VISA); conditions: read-out: MIC
Description: as §1, §2

[6] = tested on: Mupirocin-susceptible MRSA ATCC-BAA-1681 (USA100); conditions: ATCC-BAA-1681; read-out: MIC
Description: as §1, §2

[7] = tested on: Mupirocin-susceptible MRSA ATCC-BAA-1707 (USA400); conditions: ATCC-BAA-1707; read-out: MIC
Description: as §1, §2

[8] = tested on: Mupirocin-susceptible MRSA ATCC-BAA-1754 (ST45); conditions: ATCC-BAA-1754; read-out: MIC
Description: as §1, §2

[9] = tested on: Mupirocin-susceptible MRSA ATCC-BAA-1756 (USA300); conditions: ATCC-BAA-1756; read-out: MIC
Description: as §1, §2

[10] = tested on: Mupirocin-susceptible MRSA ATCC-BAA-2762 (EMRSA15, ST22); conditions: ATCC-BAA-2762; read-out: MIC
Description: as §1, §2

[11] = Mupirocin-resistant MRSA ATCC-BAA-1556, cation-adjusted MH2 broth, overnight 35° C., OD600

Structure (SMILES)	MIC ([1]; ATCC-BAA-1556)	also measured
N=C(N)NCCCCNC(=O)[C@@H](Cc1ccc(-c2ccccc2)cc1)NC(=O)[C@@H](CCCNC(=N)N)NC(=O)[C@H](N)Cc1ccc(-c2ccccc2)cc1 [Compound 2]		MIC [1, 11]: 12.5 µM (≈ 9.16 µg/mL); MIC [2]: 6.25 µM (≈ 4.58 µg/mL); MIC [3]: 6.25 µM (≈ 4.58 µg/mL); MIC [4]: 6.25 µM (≈ 4.58 µg/mL); MIC ([5]; Mupirocin-susceptible MRSA ATCC-700699 (VISA)): 6.25 µM (≈ 4.58 µg/mL); MIC [6]: 6.25 µM (≈ 4.58 µg/mL); MIC [7]: 6.25 µM (≈ 4.58 µg/mL); MIC [8]: 6.25 µM (≈ 4.58 µg/mL); MIC [9]: 6.25 µM (≈ 4.58 µg/mL); MIC [10]: 6.25 µM (≈ 4.58 µg/mL)
CC(C)(C)c1cc(-c2ccc(C[C@H](N)C(=O)N[C@@H](CCCNC(=N)N)C(=O)N[C@@H](Cc3ccc(-c4ccccc4)cc3)C(=O)N[C@@H](CCCNC(=N)N)C(N)=O)cc2)cc(C(C)(C)C)c1 [Compound 29]	50 µM (≈ 44.4 µg/mL)	
CC(C)(C)c1cc(-c2ccc(C[C@H](NC(=O)[C@H](CCCNC(=N)N)NC(=O)[C@@H](N)Cc3ccc(-c4ccccc4)cc3)C(=O)N[C@@H](CCCNC(=N)N)C(N)=O)cc2)cc(C(C)(C)C)c1 [Compound 30]	50 µM (≈ 44.4 µg/mL)	
N=C(N)NCCC[C@H](NC(=O)[C@H](Cc1ccc(-c2ccc(Cl)cc2)cc1)NC(=O)[C@H](CCCNC(=N)N)NC(=O)[C@@H](N)Cc1ccc(-c2ccc(Cl)cc2)cc1)C(N)=O [Compound 33] (H-[Bip(4'-Cl)]R[Bip(4'-Cl)]R-NH2)		MIC [1, 11]: 3.125 µM (≈ 2.64 µg/mL); improvement of bioactivity (lower MIC values) as compared to Compound 2 ([1]; against Mupirocin-resistant MRSA strains): about 4 fold; MIC [2]: 1.56 µM (≈ 1.32 µg/mL); MIC [3]: 1.56 µM (≈ 1.32 µg/mL); MIC [4]: 3.125 µM (≈ 2.64 µg/mL); MIC ([5]; ATCC-700699): 3.125 µM (≈ 2.64 µg/mL); MIC [6]: 3.125 µM (≈ 2.64 µg/mL); MIC [7]: 3.125 µM (≈ 2.64 µg/mL); MIC [8]: 3.125 µM (≈ 2.64 µg/mL); MIC [9]: 3.125 µM (≈ 2.64 µg/mL); MIC [10]: 3.125 µM (≈ 2.64 µg/mL)
N=C(N)NCCC[C@@H](NC(=O)[C@H](N)Cc1ccc(-c2ccc(Cl)cc2)cc1)C(=O)N[C@H](Cc1ccc(-c2ccc(Cl)cc2)cc1)C(N)=O [Compound 35]	6.25 µM (≈ 4.3 µg/mL)	
N=C(N)NCCC[C@@H](NC(=O)[C@@H](Cc1ccc(-c2ccc(Cl)cc2)cc1)NC(=O)[C@H](N)CCCNC(N)=O)C(N)=O [Compound 36]	>100 µM	
N=C(N)NCCC[C@@H](NC(=O)[C@H](N)Cc1ccc(-c2ccc(Cl)cc2)cc1)C(N)=O [Compound 37]	>100 µM	
NC(=O)NCCC[C@@H](N)C(=O)N[C@H](Cc1ccc(-c2ccc(Cl)cc2)cc1)C(N)=O [Compound 38]	>100 µM	
N=C(N)NCCC[C@@H](N)C(=O)N[C@H](Cc1ccc(-c2ccc(Cl)cc2)cc1)C(=O)N[C@H](CCCNC(=N)N)C(=O)N[C@H](Cc1ccc(-c2ccc(Cl)cc2)cc1)C(=O)N[C@H](CCCNC(=N)N)C(N)=O [Compound 39] (H-[dR][dBip(4'-Cl)][dR][dBip(4'-Cl)][dR]-NH2)	3.125 µM (≈ 3.13 µg/mL)	
N=C(N)NCCC[C@@H](NC(=O)[C@H](N)Cc1ccc(-c2ccc(Cl)cc2)cc1)C(=O)N[C@H](Cc1ccc(-c2ccc(Cl)cc2)cc1)C(=O)N[C@H](CCCNC(=N)N)C(=O)N[C@H](Cc1ccc(-c2ccc(Cl)cc2)cc1)C(N)=O [Compound 40] (H-[dBip(4'-Cl)][dR][dBip(4'-Cl)][dR][dBip(4'-Cl)]-NH2)	>100 µM	
N=C(N)NCCCCNC(=O)[C@H](Cc1ccc(-c2ccc(Cl)cc2)cc1)NC(=O)[C@H](CCCNC(=N)N)NC(=O)[C@@H](N)Cc1ccc(-c2ccc(Cl)cc2)cc1 [Compound 41]	6.25 µM (≈ 5.01 µg/mL)	
N=C(N)NCCC[C@H](NC(=O)[C@H](Cc1ccc(-c2ccc(Cl)cc2)cc1)NC(=O)[C@H](CCCNC(=N)N)NC(=O)[C@H](N)Cc1ccc(-c2ccc(Cl)cc2)cc1)C(N)=O [Compound 42] (H-[dBip(4'-Cl)]R[Bip(4'-Cl)]R-NH2)	6.25 µM (≈ 5.28 µg/mL)	
N=C(N)NCCC[C@H](NC(=O)[C@H](Cc1ccc(-c2ccc(Cl)cc2)cc1)NC(=O)[C@@H](CCCNC(=N)N)NC(=O)[C@@H](N)Cc1ccc(-c2ccc(Cl)cc2)cc1)C(N)=O [Compound 43] (H-[Bip(4'-Cl)][dR][Bip(4'-Cl)]R-NH2)	6.25 µM (≈ 5.28 µg/mL)	

More lines, main results first:

MIC ([1]; ATCC-BAA-1556)	Structure (SMILES)	also measured
6.25 µM (≈ 5.28 µg/mL)	N=C(N)NCCC[C@H](NC(=O)[C@H](Cc1ccc(-c2ccc(Cl)c(Cl)c2)cc1)NC(=O)[C@H](CCCNC(=N)N)NC(=O)[C@@H](N)Cc1ccc(-c2ccccc2)cc1)C(N)=O [Compound 18]	
6.25 µM (≈ 5.34 µg/mL)	N=C(N)NCCC[C@H](NC(=O)[C@H](Cc1ccc(-c2ccccc2)cc1)NC(=O)[C@H](CCCNC(=N)N)NC(=O)[C@@H](N)Cc1ccc(-c2ccc(Br)cc2)cc1)C(N)=O [Compound 19]	
6.25 µM (≈ 5.34 µg/mL)	N=C(N)NCCC[C@H](NC(=O)[C@H](Cc1ccc(-c2ccc(Br)cc2)cc1)NC(=O)[C@H](CCCNC(=N)N)NC(=O)[C@@H](N)Cc1ccc(-c2ccccc2)cc1)C(N)=O [Compound 20]	
12.5 µM (≈ 9.87 µg/mL)	Cc1ccc(-c2ccc(C[C@H](N)C(=O)N[C@@H](CCCNC(=N)N)C(=O)N[C@@H](Cc3ccc(-c4ccccc4)cc3)C(=O)N[C@@H](CCCNC(=N)N)C(N)=O)cc2)cc1 [Compound 21] (H-[Bip(4'-Me)]R[Bip]R-NH2)	
12.5 µM (≈ 9.87 µg/mL)	Cc1ccc(-c2ccc(C[C@H](NC(=O)[C@H](CCCNC(=N)N)NC(=O)[C@@H](N)Cc3ccc(-c4ccccc4)cc3)C(=O)N[C@@H](CCCNC(=N)N)C(N)=O)cc2)cc1 [Compound 22] (H-[Bip]R[Bip(4'-Me)]R-NH2)	
12.5 µM (≈ 10.4 µg/mL)	CC(C)(C)c1ccc(-c2ccc(C[C@H](N)C(=O)N[C@@H](CCCNC(=N)N)C(=O)N[C@@H](Cc3ccc(-c4ccccc4)cc3)C(=O)N[C@@H](CCCNC(=N)N)C(N)=O)cc2)cc1 [Compound 23]	
12.5 µM (≈ 10.4 µg/mL)	CC(C)(C)c1ccc(-c2ccc(C[C@H](NC(=O)[C@H](CCCNC(=N)N)NC(=O)[C@@H](N)Cc3ccc(-c4ccccc4)cc3)C(=O)N[C@@H](CCCNC(=N)N)C(N)=O)cc2)cc1 [Compound 24]	
100 µM (≈ 85.2 µg/mL)	N=C(N)NCCC[C@H](NC(=O)[C@H](Cc1ccc(-c2ccccc2)cc1)NC(=O)[C@H](CCCNC(=N)N)NC(=O)[C@@H](N)Cc1ccc(-c2ccc(-c3ccccc3)cc2)cc1)C(N)=O [Compound 25]	
25 µM (≈ 21.3 µg/mL)	N=C(N)NCCC[C@H](NC(=O)[C@H](Cc1ccc(-c2ccc(-c3ccccc3)cc2)cc1)NC(=O)[C@H](CCCNC(=N)N)NC(=O)[C@@H](N)Cc1ccc(-c2ccccc2)cc1)C(N)=O [Compound 26]	
6.25 µM (≈ 5.07 µg/mL)	N=C(N)NCCC[C@H](NC(=O)[C@H](Cc1ccc(-c2ccccc2)cc1)NC(=O)[C@H](CCCNC(=N)N)NC(=O)[C@@H](N)Cc1ccc(-c2cccc(Cl)c2)cc1)C(N)=O [Compound 27]	
6.25 µM (≈ 5.07 µg/mL)	N=C(N)NCCC[C@H](NC(=O)[C@H](Cc1ccc(-c2cccc(Cl)c2)cc1)NC(=O)[C@H](CCCNC(=N)N)NC(=O)[C@@H](N)Cc1ccc(-c2ccccc2)cc1)C(N)=O [Compound 28]	
100 µM (≈ 77.6 µg/mL)	N=C(N)NCCC[C@H](NC(=O)[C@H](Cc1ccc(-c2ccccc2)cc1)NC(=O)[C@H](CCCNC(=N)N)NC(=O)[C@@H](N)Cc1ccc(-c2ccccc2)cc1)C(N)=O [Compound 31] (H-[Bip]R[Bip]R-NH2)	
50 µM (≈ 38.8 µg/mL)	N=C(N)NCCC[C@H](NC(=O)[C@H](Cc1ccc(-c2ccccc2)cc1)NC(=O)[C@H](CCCNC(=N)N)NC(=O)[C@@H](N)Cc1ccc(-c2ccccc2)cc1)C(N)=O [Compound 32] (H-[Bip]R[Bip]R-NH2)	
6.25 µM (≈ 5.28 µg/mL)	N=C(N)NCCC[C@H](NC(=O)[C@@H](Cc1ccc(-c2ccc(Cl)cc2)cc1)NC(=O)[C@H](CCCNC(=N)N)NC(=O)[C@@H](N)Cc1ccc(-c2ccc(Cl)cc2)cc1)C(N)=O [Compound 44] (H-[Bip(4'-Cl)]R[dBip(4'-Cl)]R-NH2)	
6.25 µM (≈ 5.28 µg/mL)	N=C(N)NCCC[C@H](NC(=O)[C@@H](N)Cc1ccc(-c2ccc(Cl)cc2)cc1)C(=O)N[C@@H](Cc1ccc(-c2ccc(Cl)cc2)cc1)C(=O)N[C@H](CCCNC(=N)N)C(N)=O [Compound 45] (H-[Bip(4'-Cl)]R[Bip(4'-Cl)][dR]-NH2)	
